From article PMC9043592, “New triterpenes from Cimicifuga yunnanensis down-regulating the mRNA expression of CD147, MMP-2, and MMP-9” (RSC Advances, 2021)

Key:
[1] = system: CD147 and MMPs mRNA expression; set-up: method as in PMID 35541353, doi:10.1016/j.phytol.2021.01.009; details: previously identified CTs from C. foetida; cited from earlier work
[2] = system: CD147 (extracellular matrix metalloproteinase inducer, EMMPRIN) mRNA expression; experiment: q-PCR, mRNA expression of CD147 in PMA-induced THP-1 cells; format: cell-based, Human; details: 24 h; for CD147 mRNA inhibitory effect compared with YG (positive control) / suppression of the mRNA expression of CD147 (in words): 10 μM; for IC50: Homo sapiens, q-PCR 2^-ΔΔCt, 1-50 μM, read-out: IC50, suppression of mRNA expression of CD147
Protocol: (§1) Human monocytic THP-1 cells were cultured at 37 °C by DMEM/F12 medium supplemented with 10% fetal bovine serum and 1% penicillin/streptomycin in a humidified atmosphere of 5% CO2. Cells (5 × 10^5 to 10^6 per mL) were subjected to differentiation by 100 nM PMA for 24 h with DMEM/F12 serum medium. After incubation, the adherent cells were washed with DMEM/F12. Nonattached cells were removed by aspiration.
RevertAid™ First Strand cDNA Synthesis Kit was applied to extract total RNA of differentiated THP-1 cells treated with compounds 3–5, 9 and 11 (10 μM), along with 7 and 8 (1, 3, 10, 25, and 50 μM) for 24 h (5 × 10^5 cells per mL) following the manufacturer's instructions. cDNA was synthesized from the isolated total RNA based on the instruction of the PrimeScript RT reagent Kit. Briefly, PrimeScript RT Enzyme Mix 1 (0.5 μL), 5 × PrimeScriptTM Buffer (2 μL), oligo dt Primer (0.5 μL) and Random 6 mers (0.5 μL) were gently mixed with 1 μg RNA from each sample to a reaction volume of 10 μL with RNase free water, then incubated for 15 minutes at 37 °C to activate the reverse transcriptase enzyme. Finally, the reaction was stopped by 85 °C for 5 seconds.
After reverse transcription, cDNA was used to carry out real-time quantitative RT-PCR on ProFlex™ PCR system by SYBR Premix Ex Taq (Takara). The final volume of TR-PCR reaction is 25 μL, containing 12.5 μL SYBR green master mix, 1 μL cDNA, 0.5 μL each forward and reverse primer, and 10.5 μL nuclease-free water. For information of primers see Table S1. ^† Thermal cycling conditions for all genes were as follows: template pre-denaturation (10 min at 95 °C), denaturation (15 seconds at 95 °C), annealing and extension (30 seconds at 60 °C) for 40 cycles. Internal reference is GAPDH mRNA, and fold changes of mRNA expression for each target relative to GAPDH were calculated by the 2^−ΔΔCt method. Expression of mRNA is determined as the change in mRNA copy numbers relative to negative control cells (undifferentiated THP-1 cells). All the experiments were carried out in triplicate.

[3] = system: migration of PMA-induced THP-1 cells; experiment: Wound-healing (scratch wound) migration assay; format: cell-based; details: Homo sapiens, 24 h incubation, read-out: IC50, decrease of number of migrated cells
Protocol: as §1
The differentiated THP-1 cells were seeded and grown into full confluence in 6 well plates. 2% FBS DMEM/F12 media was used to inactivated cell proliferation for 12 h, then wounded with pipette tips. Fresh DMEM/F12 medium with or without 1, 3, 10, 25, and 50 μM of 7 was added to the scratched monolayers. Images were took after 24 hours using a Nickon inverted microscope (magnification, 10×). The migration cell number of PMA-induced THP-1 cell group was defined as control. All the experiments were performed in triplicate.

[4] = system: MMP-2 mRNA expression; experiment: q-PCR, mRNA expression of MMP-2 in PMA-induced THP-1 cells; format: cell-based, Human; details: 24 h
Protocol: as §1
(§2) RevertAid™ First Strand cDNA Synthesis Kit was applied to extract total RNA of differentiated THP-1 cells treated with compounds 3–5, 9 and 11 (10 μM), along with 7 and 8 (1, 3, 10, 25, and 50 μM) for 24 h (5 × 10^5 cells per mL) following the manufacturer's instructions. cDNA was synthesized from the isolated total RNA based on the instruction of the PrimeScript RT reagent Kit. […]
(§3) After reverse transcription, cDNA was used to carry out real-time quantitative RT-PCR on ProFlex™ PCR system by SYBR Premix Ex Taq (Takara). […] Internal reference is GAPDH mRNA, and fold changes of mRNA expression for each target relative to GAPDH were calculated by the 2^−ΔΔCt method. Expression of mRNA is determined as the change in mRNA copy numbers relative to negative control cells (undifferentiated THP-1 cells). […]

[5] = system: MMP-9 mRNA expression; experiment: q-PCR, mRNA expression of MMP-9 in PMA-induced THP-1 cells; format: cell-based, Human; details: 24 h
Protocol: as §1, §2, §3

| Molecule | inhibitions on CD147 and MMPs mRNA expression (in words) [1] | CD147 mRNA inhibitory effect compared with YG (positive control) [2] | suppression of the mRNA expression of CD147 (in words) [2] | IC50 [2] | IC50 [3] | IC50 ([4]; Homo sapiens, q-PCR, 1-50 μM, read-out: IC50, down-regulation of mRNA expression of MMP-2) | IC50 ([5]; Homo sapiens, q-PCR, 1-50 μM, read-out: IC50, down-regulation of mRNA expression of MMP-9) | decrease of MMP-2 mRNA expression ([4]; 10 μM, P < 0.01) | decrease of MMP-9 mRNA expression ([5]; 10 μM, P < 0.01) |
| --- | --- | --- | --- | --- | --- | --- | --- | --- | --- |
| 12β-hydroxycimiacerol [HC] | notable inhibitions | – | – | – | – | – | – | – | – |
| CC1CC(C(O)C(C)(C)O)OC2(O)C(=O)C3(C)C4=CCC5C(C)(C)C(=O)CCC56CC46CC(O)C3(C)C12 [Compound 7, (23R,24S)-12β-Hydroxy-7(8)-en-3,15-dione-hydroxyshengmanol] | – | more potent than YG | noticeably suppressed | 3.38 ± 0.27 µM | 5.87 ± 0.27 µM | 6.32 ± 0.31 µM | 11.6 ± 0.23 µM | – | – |
| CC1C(O)C2(OC3CC4(C)C5CCC6C(C)(C)C(O)CCC67CC57CCC4(C)C31)OC2C(C)(C)O (stereo not shown) [Compound 8, Actaeaepol] | – | same level of activity as YG | noticeably suppressed | 8.25 ± 0.33 µM | – | – | – | 35% | 25% |
| yunnanterpene G [YG] | notable inhibitions | – | – | – | – | – | – | – | – |
